Results reported in ChEMBL document CHEMBL5614368, “Fyn, Blk, and Lyn kinase inhibitors: A mini-review on medicinal attributes, research progress, and future insights” (Bioorg Med Chem Lett, 2024).

Columns and labels:
[1] = molecular target: Tyrosine-protein kinase Fyn (Homo sapiens, UniProt P06241); experiment: Inhibition of full-length human recombinant Fyn using Poly(Glu4, Tyr1) as substrate measured for 60 mins by Kinase-Glo reagent based analysis
[2] = molecular target: Proto-oncogene tyrosine-protein kinase Src (Homo sapiens, UniProt P12931); experiment: Binding affinity to SRC (unknown origin) assessed as inhibition constant
Sequence of Proto-oncogene tyrosine-protein kinase Src (P12931 2-536 limits assumed): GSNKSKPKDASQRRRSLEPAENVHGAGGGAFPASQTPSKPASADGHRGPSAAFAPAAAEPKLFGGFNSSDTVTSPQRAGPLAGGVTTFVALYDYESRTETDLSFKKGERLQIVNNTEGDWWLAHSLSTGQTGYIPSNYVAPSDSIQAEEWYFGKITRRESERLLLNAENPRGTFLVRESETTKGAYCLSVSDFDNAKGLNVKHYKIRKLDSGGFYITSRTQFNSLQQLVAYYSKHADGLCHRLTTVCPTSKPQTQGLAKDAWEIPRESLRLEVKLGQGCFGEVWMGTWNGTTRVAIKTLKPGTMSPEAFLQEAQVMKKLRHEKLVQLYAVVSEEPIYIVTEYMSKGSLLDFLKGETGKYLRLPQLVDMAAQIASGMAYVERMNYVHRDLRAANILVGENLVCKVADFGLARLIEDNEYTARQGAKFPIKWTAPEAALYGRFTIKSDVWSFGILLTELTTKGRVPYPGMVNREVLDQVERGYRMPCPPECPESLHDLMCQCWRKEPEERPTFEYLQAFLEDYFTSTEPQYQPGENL

[3] = molecular target: Tyrosine-protein kinase Lyn (Homo sapiens) (UniProt P07948); experiment: Inhibition of LYN (unknown origin) at 0.1 uM relative to control
Sequence of Tyrosine-protein kinase Lyn (Homo sapiens) (P07948 2-512 limits assumed): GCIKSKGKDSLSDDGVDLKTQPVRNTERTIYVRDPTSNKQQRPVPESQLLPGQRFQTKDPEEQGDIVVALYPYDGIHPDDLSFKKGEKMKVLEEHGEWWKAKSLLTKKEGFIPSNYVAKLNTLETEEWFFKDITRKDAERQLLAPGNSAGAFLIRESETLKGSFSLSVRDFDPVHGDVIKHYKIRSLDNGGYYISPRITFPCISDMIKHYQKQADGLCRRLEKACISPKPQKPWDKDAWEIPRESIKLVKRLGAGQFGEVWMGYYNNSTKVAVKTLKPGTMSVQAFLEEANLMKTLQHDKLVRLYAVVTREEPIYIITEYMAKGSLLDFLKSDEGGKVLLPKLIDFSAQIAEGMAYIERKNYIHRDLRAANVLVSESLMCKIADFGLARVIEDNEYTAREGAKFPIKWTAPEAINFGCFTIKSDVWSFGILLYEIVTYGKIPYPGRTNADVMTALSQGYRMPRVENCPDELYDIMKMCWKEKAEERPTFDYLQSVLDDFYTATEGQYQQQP

Sequence of Tyrosine-protein kinase Fyn (P06241 whole entry): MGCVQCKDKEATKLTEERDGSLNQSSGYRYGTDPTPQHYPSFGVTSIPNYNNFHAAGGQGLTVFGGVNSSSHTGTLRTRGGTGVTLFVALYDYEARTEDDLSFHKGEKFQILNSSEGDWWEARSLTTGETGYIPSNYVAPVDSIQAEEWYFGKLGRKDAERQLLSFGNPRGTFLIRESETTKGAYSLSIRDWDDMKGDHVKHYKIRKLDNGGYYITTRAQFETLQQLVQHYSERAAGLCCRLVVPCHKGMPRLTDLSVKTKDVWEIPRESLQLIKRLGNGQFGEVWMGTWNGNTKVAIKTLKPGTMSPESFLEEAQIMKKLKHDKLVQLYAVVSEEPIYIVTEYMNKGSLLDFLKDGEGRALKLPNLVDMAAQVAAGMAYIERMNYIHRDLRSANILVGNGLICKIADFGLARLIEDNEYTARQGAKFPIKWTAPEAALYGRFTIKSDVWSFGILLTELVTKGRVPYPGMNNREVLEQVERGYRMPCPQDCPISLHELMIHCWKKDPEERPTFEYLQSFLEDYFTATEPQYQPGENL

IC50 [1] | Structure (SMILES) | other results
760 nM | Cc1nnc(NC2CCCCC2)nc1O | 
 | Oc1ccc(F)c(Nc2nc(SCCN3CCOCC3)nc3c2cnn3CC(Cl)c2ccccc2)c1 (centres undefined) | Ki [2]: 170 nM
 | CSc1ccc(C(=O)NCc2cc3c(=O)[nH]c(N)nc3[nH]2)cc1 | inhibition [3]: 42%
4800 nM | Cc1n[nH]c(Nc2ccc3c(c2)OCO3)nc1=O | 
